Measurements: article PMC7397249, “Properly Substituted Cyclic Bis-(2-bromobenzylidene) Compounds Behaved as Dual p300/CARM1 Inhibitors and Induced Apoptosis in Cancer Cells” (Molecules, 2020)

Key:
PCAF = molecular target: T1, PCAF (Homo sapiens, UniProt Q92831); assay: HotSpot HAT activity assay, PCAF; type: biochemical; conditions: 10-dose, from 200 μM; histone H3, [acetyl-3H]-acetyl-CoA
T1 construct: PCAF (aa 492–658, 250 nM); purchased Reaction Biology Corporation
Description: (§1) The newly synthesized compounds 4a–n were tested to determine their effects against acetylation and methylation epigenetic targets. First, 4a–n were screened in vitro against the two HAT enzymes p300 and PCAF. […] To determine the activity against SIRT1 and -2, 4a–n were tested starting from 200 μM solutions using a modified Fluor de Lys fluorescence-based assay with amino acids 379–382 (Arg-His-Lys-Lys(Ac)) of human p53 conjugated with aminomethylcoumarin as substrate and NAD^+ as co-substrate. […] Furthermore, 4a–n were tested against a human five-membered Polycomb repressive complex 2 (PRC2) containing EZH2, embryonic ectoderm development (EED), suppressor of zeste 12 (SUZ12), RbAp48, and adipocyte enhancer-binding protein (AEBP2), to assess their capability to inhibit the catalytic unit EZH2.
The effect of tested derivatives on the catalytic activity of p300 and PCAF was determined in a HotSpot HAT activity assay by Reaction Biology Corporation (Malvern, PA, USA) according to the company’s standard operating procedure. In brief, the recombinant catalytic domains of PCAF (aa 492–658, 250 nM) or p300 (aa 1284–1673, 30 nM) were incubated with histone H3 as substrate (5 µM) and [Acetyl-^3H]-Acetyl Coenzyme A (3 µM) as an acetyl donor in reaction buffer (50 mM Tris-HCl (pH 8.0), 50 mM NaCl, 0.1 mM EDTA, 1 mM DTT, 1 mM PMSF, 1% DMSO) for 1 h at 30 °C in the presence or absence of a dose titration of the compounds. The reaction mixture was delivered to filter-paper for detection. IC50 values were analyzed using Excel and GraphPad Prism 6.0 software (GraphPad Software Inc., San Diego, CA, USA). The experiments for p300 were performed in triplicate.

CARM1 = molecular target: T2, CARM1 (Homo sapiens, UniProt Q86X55); assay: CARM1 assay (histone H3, 3H-SAM); type: biochemical
T2 sequence (Q86X55 1-608): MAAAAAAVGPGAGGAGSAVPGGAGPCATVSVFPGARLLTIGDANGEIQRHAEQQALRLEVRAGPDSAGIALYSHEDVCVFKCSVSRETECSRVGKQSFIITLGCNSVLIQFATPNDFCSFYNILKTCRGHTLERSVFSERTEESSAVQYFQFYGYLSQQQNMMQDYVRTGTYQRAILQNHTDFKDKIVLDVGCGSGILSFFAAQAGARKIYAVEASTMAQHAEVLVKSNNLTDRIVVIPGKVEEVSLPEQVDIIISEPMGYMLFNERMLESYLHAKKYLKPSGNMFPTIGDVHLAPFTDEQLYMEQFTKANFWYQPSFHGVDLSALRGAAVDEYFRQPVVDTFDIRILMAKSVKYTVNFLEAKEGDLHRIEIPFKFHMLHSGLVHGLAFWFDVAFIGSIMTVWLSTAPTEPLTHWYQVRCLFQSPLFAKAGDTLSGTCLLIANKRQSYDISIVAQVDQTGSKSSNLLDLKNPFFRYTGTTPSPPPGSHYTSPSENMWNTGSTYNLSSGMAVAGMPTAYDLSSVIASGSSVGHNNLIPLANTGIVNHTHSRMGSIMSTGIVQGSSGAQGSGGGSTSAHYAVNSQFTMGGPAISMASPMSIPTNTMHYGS
Description: Histone H3 (5 μM) was added in freshly prepared reaction buffer (50 mM Tris-HCl (pH 8.5), 5 mM MgCl2, 50 mM NaCl, 0.01% Brij35, 1 mM DTT, 1% DMSO). CARM1 was delivered into the substrate solution and the mixture was mixed gently. Afterwards, the tested compounds dissolved in DMSO were delivered into the enzyme/substrate reaction mixture by using Acoustic Technology (Echo 550, LabCyte Inc. Sunnyvale, CA) in nanoliter range, and 1 µM ^3H-SAM was also added into the reaction mixture to initiate the reaction. The reaction mixture was incubated for 1 h at 30 °C and then it was delivered to filter-paper for detection. The data were analyzed using Excel and GraphPad Prism software for IC50 curve fits. The experiments were performed in triplicate.

MCF-7 cells = assay: Cell cycle and apoptosis (sub-G1) analysis by FACS in MCF-7 cells; type: cell-based, human; conditions: 5 μM, 30 h
Description: Compounds 4a–n were tested at 5 μM for 30 h in NB4 […] and U937 AML cells among hematological cancers, and in MCF-7 breast cancer and SH-SY5Y neuroblastoma cells among solid cancers, to determine their effects in cell cycle and apoptosis induction.
In the same cell lines, the induction of apoptosis has been evaluated through the percentage of the sub-G1 peaks.
For colorimetric exclusion, the cells (2 × 10^5 cells/mL) were plated in multiwells in triplicate. After stimulations at different times and concentrations, cells were diluted in the ratio 1:1 in Trypan Blue (Sigma) and counted with an optical microscope. For cell cycle analyses, cells were plated (2 × 10^5 cells/mL) and were harvested, centrifuged at 1200 rpm for 5 min and resuspended in 500 μL of a hypotonic solution containing 1× PBS, Sodium Citrate 0.1%, 0.1% NP-40, RNAase A and […] Propidium Iodide (PI). After 30 min at room temperature (RT) in the dark, samples were acquired by FACS-Calibur (BD Bioscences, San Jose, CA, USA) using CellQuest software (BD Biosciences). The percentage in different phases of the cell cycle was determined by ModFit LT V3 software (Verity). All experiments were performed in triplicate. Cell death was measured as percentage of cells in sub-G1 phase as in [30].

PRC2/EZH2 = PRC2/EZH2 (Homo sapiens, UniProt Q15910); assay: EZH2/PRC2 assay (core histone, 3H-SAM); type: biochemical; conditions: 10-dose, duplicate, from 400 μM
Chain of PRC2/EZH2 (Q15022 whole entry): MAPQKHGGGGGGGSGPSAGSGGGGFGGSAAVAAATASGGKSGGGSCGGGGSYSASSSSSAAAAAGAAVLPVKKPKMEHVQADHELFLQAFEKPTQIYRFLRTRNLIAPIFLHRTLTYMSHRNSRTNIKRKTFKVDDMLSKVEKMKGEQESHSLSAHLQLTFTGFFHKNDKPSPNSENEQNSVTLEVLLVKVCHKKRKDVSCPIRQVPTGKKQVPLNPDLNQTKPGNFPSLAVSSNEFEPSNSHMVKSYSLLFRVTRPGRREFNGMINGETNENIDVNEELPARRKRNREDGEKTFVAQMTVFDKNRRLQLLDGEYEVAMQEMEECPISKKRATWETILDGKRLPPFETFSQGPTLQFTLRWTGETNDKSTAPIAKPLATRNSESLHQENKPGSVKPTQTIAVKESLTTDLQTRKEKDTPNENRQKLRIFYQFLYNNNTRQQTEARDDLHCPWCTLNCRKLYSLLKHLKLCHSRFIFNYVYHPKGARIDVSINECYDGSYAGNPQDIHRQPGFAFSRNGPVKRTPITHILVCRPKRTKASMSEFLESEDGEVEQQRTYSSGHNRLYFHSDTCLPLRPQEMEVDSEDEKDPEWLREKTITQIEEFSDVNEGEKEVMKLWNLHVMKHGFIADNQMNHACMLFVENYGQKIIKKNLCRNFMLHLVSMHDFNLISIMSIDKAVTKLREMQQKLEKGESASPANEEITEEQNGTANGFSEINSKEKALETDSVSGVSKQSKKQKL
Chain of PRC2/EZH2 (Q09028 whole entry, further chain): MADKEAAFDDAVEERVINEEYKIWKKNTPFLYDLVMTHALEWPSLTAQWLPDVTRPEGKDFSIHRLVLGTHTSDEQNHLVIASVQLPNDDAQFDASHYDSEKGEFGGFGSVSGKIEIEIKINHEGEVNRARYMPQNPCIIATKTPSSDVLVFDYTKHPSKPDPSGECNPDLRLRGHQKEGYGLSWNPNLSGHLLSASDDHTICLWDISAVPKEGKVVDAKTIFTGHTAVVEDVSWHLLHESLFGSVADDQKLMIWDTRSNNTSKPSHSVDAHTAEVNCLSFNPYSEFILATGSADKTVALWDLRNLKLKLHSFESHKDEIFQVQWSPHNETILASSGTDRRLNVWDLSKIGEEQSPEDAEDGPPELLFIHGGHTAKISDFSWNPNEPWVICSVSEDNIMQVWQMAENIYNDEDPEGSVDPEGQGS
Chain of PRC2/EZH2 (Q6ZN18 whole entry, further chain): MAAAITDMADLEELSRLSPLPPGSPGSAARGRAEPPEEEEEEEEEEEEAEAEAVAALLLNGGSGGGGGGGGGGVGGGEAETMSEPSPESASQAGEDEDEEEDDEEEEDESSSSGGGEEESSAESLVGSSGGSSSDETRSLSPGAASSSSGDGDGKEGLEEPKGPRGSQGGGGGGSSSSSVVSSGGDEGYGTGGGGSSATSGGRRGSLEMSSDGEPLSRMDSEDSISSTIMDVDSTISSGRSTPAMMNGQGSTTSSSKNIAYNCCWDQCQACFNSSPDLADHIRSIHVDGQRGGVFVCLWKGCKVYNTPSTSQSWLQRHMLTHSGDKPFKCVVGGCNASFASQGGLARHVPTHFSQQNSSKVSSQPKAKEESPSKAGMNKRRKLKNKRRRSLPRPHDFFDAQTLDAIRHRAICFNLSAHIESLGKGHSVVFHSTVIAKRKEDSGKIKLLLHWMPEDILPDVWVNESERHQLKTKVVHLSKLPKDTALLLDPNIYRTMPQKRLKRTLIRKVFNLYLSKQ
Chain of PRC2/EZH2 (Q15910 whole entry): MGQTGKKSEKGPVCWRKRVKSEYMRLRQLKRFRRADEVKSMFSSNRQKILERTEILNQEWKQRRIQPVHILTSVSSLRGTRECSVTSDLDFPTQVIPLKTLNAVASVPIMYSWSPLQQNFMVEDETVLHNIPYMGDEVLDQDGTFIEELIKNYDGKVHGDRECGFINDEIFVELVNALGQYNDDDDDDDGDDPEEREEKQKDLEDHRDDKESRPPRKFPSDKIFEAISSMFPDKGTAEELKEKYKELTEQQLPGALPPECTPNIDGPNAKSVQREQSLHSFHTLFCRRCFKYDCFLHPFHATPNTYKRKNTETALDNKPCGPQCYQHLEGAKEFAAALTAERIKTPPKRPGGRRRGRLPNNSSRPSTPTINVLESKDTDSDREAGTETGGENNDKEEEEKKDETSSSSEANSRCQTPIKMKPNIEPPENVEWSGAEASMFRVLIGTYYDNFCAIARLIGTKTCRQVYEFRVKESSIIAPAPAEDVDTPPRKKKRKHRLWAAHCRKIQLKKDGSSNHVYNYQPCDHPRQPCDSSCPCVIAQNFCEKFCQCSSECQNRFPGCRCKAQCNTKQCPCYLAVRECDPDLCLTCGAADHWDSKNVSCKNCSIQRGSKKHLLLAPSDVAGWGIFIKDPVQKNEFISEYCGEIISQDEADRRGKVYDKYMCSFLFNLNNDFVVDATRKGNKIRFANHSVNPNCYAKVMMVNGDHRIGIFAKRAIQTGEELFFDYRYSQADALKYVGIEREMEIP
Chain of PRC2/EZH2 (O75530 whole entry, further chain): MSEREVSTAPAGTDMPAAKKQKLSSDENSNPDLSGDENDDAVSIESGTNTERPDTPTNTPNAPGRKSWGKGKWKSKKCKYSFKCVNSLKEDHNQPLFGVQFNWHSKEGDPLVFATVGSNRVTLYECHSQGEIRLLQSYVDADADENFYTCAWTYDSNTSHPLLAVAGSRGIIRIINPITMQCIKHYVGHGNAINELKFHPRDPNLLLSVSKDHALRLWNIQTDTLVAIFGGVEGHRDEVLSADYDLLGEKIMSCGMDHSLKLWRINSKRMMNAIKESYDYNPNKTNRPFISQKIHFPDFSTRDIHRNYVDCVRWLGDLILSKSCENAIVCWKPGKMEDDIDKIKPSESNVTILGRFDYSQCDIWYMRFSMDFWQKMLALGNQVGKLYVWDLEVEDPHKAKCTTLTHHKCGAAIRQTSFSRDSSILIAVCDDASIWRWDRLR
Description: as §1
The EZH2 substrate (0.05 mg/mL core histone) was added in the freshly prepared reaction buffer (50 mM Tris-HCl (pH 8.0), 50 mM NaCl, 1 mM EDTA, 1 mM DTT, 1 mM PMSF, 1% DMSO). The PRC2 complex (complex of human EZH2, human EED, human SUZ12, human AEBP2, and human RbAp48) was delivered into the substrate solution and the mixture was mixed gently. Afterwards, the tested compounds dissolved in DMSO were delivered into the enzyme/substrate reaction mixture by using Acoustic Technology (Echo 550, LabCyte Inc. Sunnyvale, CA, USA) in nanoliter range, and ^3H-SAM was added into the reaction mixture to initiate the reaction. The reaction mixture was incubated for 1 h at 30 °C and then it was delivered to filter-paper for detection. The data were analyzed using Excel and GraphPad Prism software for IC50 curve fits. The experiments were performed in duplicate.

T1 sequence (Q92831 492-658): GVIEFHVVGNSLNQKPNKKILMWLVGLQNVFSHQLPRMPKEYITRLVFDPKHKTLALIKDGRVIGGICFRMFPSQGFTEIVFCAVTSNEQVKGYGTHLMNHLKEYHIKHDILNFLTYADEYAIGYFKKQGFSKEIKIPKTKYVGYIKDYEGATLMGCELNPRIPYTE

Row | Compound | IC50 (PCAF) | IC50 (CARM1) | cell cycle: block in G1/S phase with almost total absence of cells in the G2/M phase (MCF-7 cells) | IC50 (PRC2/EZH2) | induction of apoptosis, % sub-G1 peaks (MCF-7 cells) | cell cycle: block in G1/S phase with almost total absence of cells in the S phase (MCF-7 cells)
1 | O=C1/C(=C/c2ccccc2Br)CN(Cc2ccccc2)C/C1=C\c1ccccc1Br [Compound 4e, 1-benzyl-3,5-bis((E)-2-bromobenzylidene)piperidin-4-one] | > 200 µM | 6.5 ± 0.86 µM | almost total absence of cells | 44.2 ± 0.2 µM |  | 
2 | O=C1/C(=C/c2ccccc2Br)CN(CCc2ccccc2)C/C1=C\c1ccccc1Br [Compound 4f, 3,5-Bis((E)-2-bromobenzylidene)-1-phenethylpiperidin-4-one] | > 200 µM | 18.5 ± 0.9 µM |  |  |  | 
3 | O=C1/C(=C/c2ccccc2Br)CN(CCCc2ccccc2)C/C1=C\c1ccccc1Br [Compound 4g, 3,5-Bis((E)-2-bromobenzylidene)-1-(3-phenylpropyl)piperidin-4-one] | > 200 µM | 12.6 ± 2.6 µM |  |  |  | 
4 | O=C1/C(=C/c2ccccc2Br)CN(CC(=O)c2ccccc2)C/C1=C\c1ccccc1Br [Compound 4h, 3,5-Bis((E)-2-bromobenzylidene)-1-(2-oxo-2-phenylethyl)piperidin-4-one] | > 200 µM | 5.52 ± 0.78 µM |  | 46 ± 8.1 µM | around 25% | 
5 | O=C1/C(=C/c2ccccc2Br)CN(CCCC(=O)c2ccccc2)C/C1=C\c1ccccc1Br [Compound 4j, 3,5-Bis((E)-2-bromobenzylidene)-1-(4-oxo-4-phenylbutyl)piperidin-4-one] | > 200 µM | 4.8 ± 1.72 µM | almost total absence of cells | 68.5 ± 6.2 µM |  | 
6 | O=C1/C(=C/c2ccccc2Br)CN(C(=O)c2ccccc2)C/C1=C\c1ccccc1Br [Compound 4k, 1-Benzoyl-3,5-bis((E)-2-bromobenzylidene)piperidin-4-one] | > 200 µM | 1.33 ± 0.14 µM |  | 40.7 ± 15.3 µM |  | almost total absence of cells
7 | O=C1/C(=C/c2ccccc2Br)CN(C(=O)Cc2ccccc2)C/C1=C\c1ccccc1Br [Compound 4l, 3,5-Bis((E)-2-bromobenzylidene)-1-(2-phenylacetyl)piperidin-4-one] | > 200 µM | 0.43 ± 0.12 µM |  | 15.2 ± 2.2 µM |  | almost total absence of cells
8 | O=C1/C(=C/c2ccccc2Br)CN(C(=O)CCc2ccccc2)C/C1=C\c1ccccc1Br [Compound 4m, 3,5-Bis((E)-2-bromobenzylidene)-1-(3-phenylpropanoyl)piperidin-4-one] | > 200 µM | 0.79 ± 0.06 µM | almost total absence of cells | 11.3 ± 0.08 µM |  | 
9 | O=C1/C(=C/c2ccccc2Br)CN(C(=O)C=Cc2ccccc2)C/C1=C\c1ccccc1Br [Compound 4n, 3,5-Bis((E)-2-bromobenzylidene)-1-cinnamoylpiperidin-4-one] | > 200 µM | 7.14 ± 2.54 µM | almost total absence of cells | 13.9 ± 1.8 µM |  | almost total absence of cells
